Patent US20240018611A1, “IMMUNE MOLECULE VIRUS PARTICLE DETECTION KIT” (priority 2021, published 2024)

Tests used:
[1] = tested on: HBV; assay: HBV DNA in supernatant of ETV-treated HepAD38 cells (immune capture of virus particles + qPCR); assay type: cell-based, hepatitis B virus (HBV)
Procedure: (§1) The inventor selects the supernatant of HBV-secreting cells ([…] and HepAD38) for testing and verification. HepG2.2.15 and HepAD38 are the two cell lines that are commonly used in the laboratory to stably express HBV, and entecavir (ETV) is the first-line drug in clinical treatment of hepatitis B at present. The inventor uses different concentration gradients of ETV (0.1 μM, 1 μM, 10 μM, PBS as control group). Then, the virus particles are captured by virus particle-antibody (the envelope PreS1 monoclonal antibody and the core particle HBc monoclonal antibody)-biotin-streptavidin-magnetic beads, and the genomic DNA of HBV in the corresponding virus particles is detected.
(§2) In order to study the dynamic changes of HBV DNA with different components, two cell lines, HepG2.2.15 and HepAD38, which stably express HBV, are pretreated with different concentration gradients of ETV (0.1 μM, 1 μM, 10 μM and a PBS control group), and the supernatant is discarded after 24 hours, and replaced with fresh Dulbecco's modified eagle medium (DMEM) and ETV with different concentration gradients. After 72 hours, the supernatant is transferred to an EP tube, and the virus particles in the supernatant are captured by PreS1 antibody-magnetic beads and HBc antibody-magnetic beads respectively, and the captured products are detected by qPCR.

[2] = tested on: HBV; assay: HBV DNA in supernatant of ETV-treated HepG2.2.15 cells (immune capture of virus particles + qPCR); assay type: cell-based, hepatitis B virus (HBV)
Procedure: as §1, §2
The above research results mean that the capture method can separate and capture virus particles in cell supernatant. […] The same conclusion is obtained in HepAD38 cell experiment (FIGS. 10A-10B).

[3] = ETV 0.1 μM, 1 μM, 10 μM, PBS control, antibody-biotin-streptavidin-magnetic bead capture, FIGS. 2A-2B

For C=C1[C@H](CO)[C@@H](O)C[C@@H]1n1cnc2c(=O)[nH]c(N)nc21 [ETV, entecavir], the “viral genomic DNA (total, complete virus particles, core particles) in cell supernatant versus ETV concentration” value [1, 3] was “The higher the concentration of ETV, the lower the viral genomic DNA detected by the three methods”, the “total HBV genomic DNA, complete virus particle genomic DNA and virus core particle DNA over time” value ([1]; ETV 1 uM, FIGS. 2C-2D) was “all decreased rapidly in two days” and the “viral genomic DNA (total, complete virus particles, core particles) in cell supernatant versus ETV concentration” value [2, 3] was “The higher the concentration of ETV, the lower the viral genomic DNA detected by the three methods”. For the same compound, the “copies of HBV DNA in the supernatant” value ([2]; ETV 0.1 μM, 1 μM, 10 μM, supernatant after 72 hours, PreS1/HBc antibody-magnetic bead capture, FIGS. 9A-9B) was “decreased in a dose-dependent manner” and the “total HBV genomic DNA, complete virus particle genomic DNA and virus core particle DNA over time” value ([2]; ETV 1 uM, FIGS. 2C-2D) was “all decreased rapidly in two days”.
